This passage reports Kd results from US11623929B2, “Spirocyclic compounds” (C4 Therapeutics, Inc., priority 2018, dated 2023).

The assay has as its target h-Cereblon_DDB1 (hCereblon(M1-L442)_hDDB1(M1-H1140)) (Homo sapiens (Human), UniProt Q96SW2). Put plainly: Fluorescence direct binding (tryptophan fluorescence titration). The settings on record: 20° C., excitation 280 nm, emission 340 nm, assay buffer 50 mM Hepes 7.4 200 mM NaCl, protein 5.0 E−8 M; read-out: Fluorescence h-Cereblon_DDB1 Mean Kd_EQ. On the procedure: Fluorescence Direct Binding Protocol
Determination of the affinities of compounds to protein containing one or more tryptophan is measurable by monitoring the fluorescence emission in direct mode. The measurements depending on the protein available amounts are performed either manually in a cuvette on ISS-PC1 photon counting spectrofluorometer or automatically in well plates on a fluorescence plate reader device. Fluorescence titrations are performed at 20° C. in the chosen binding assay buffer by using a defined constant protein concentration against ligand concentration variations. Small aliquots of known ligand concentration solubilized in DMSO were added and the fluorescence, excited at 280 nm, was recorded at 340 nm. The fluorescence intensity was corrected for protein dilution and for the filter effect (Birdsall, B., et al. (1983). Anal. Biochem. 132, 353-361). The corrected fluorescence intensity was plotted against the ligand concentration and fitted using a four-parameter sigmoidal function, from which the equilibrium dissociation constant Kd was computed using the law of mass action assuming a 1:1 protein-ligand complex (Eftink, Methods Enzymol. 1997; 278:221-57).
The Fluorescence Direct Binding Protocol Process includes:
• 1) Optimization of measurement parameters to minimize protein consumption and to minimize the dilution effect and the DMSO content • 2) Titration measurements of the protein against ligand by at least 12 titration steps to obtain a good s-curve fit • 3) Repeat the same titration measurements with the ligand alone to enable correction • 4) Check the stability of the protein once by titration against DMSO alone • 5) Determination of the molar extinction coefficients of the ligand at 280 and 340 nm with help of an UV-spectrophotometer • 6) Use Excel template for the correction of the measured raw data • 7) Use GraphPad Prism software for the quadratic binding fit and the KD evaluation.

SMILES strings stand for the structures.

h-Cereblon_DDB1 (hCereblon(M1-L442)_hDDB1(M1-H1140)), sequence (Q96SW2 whole entry): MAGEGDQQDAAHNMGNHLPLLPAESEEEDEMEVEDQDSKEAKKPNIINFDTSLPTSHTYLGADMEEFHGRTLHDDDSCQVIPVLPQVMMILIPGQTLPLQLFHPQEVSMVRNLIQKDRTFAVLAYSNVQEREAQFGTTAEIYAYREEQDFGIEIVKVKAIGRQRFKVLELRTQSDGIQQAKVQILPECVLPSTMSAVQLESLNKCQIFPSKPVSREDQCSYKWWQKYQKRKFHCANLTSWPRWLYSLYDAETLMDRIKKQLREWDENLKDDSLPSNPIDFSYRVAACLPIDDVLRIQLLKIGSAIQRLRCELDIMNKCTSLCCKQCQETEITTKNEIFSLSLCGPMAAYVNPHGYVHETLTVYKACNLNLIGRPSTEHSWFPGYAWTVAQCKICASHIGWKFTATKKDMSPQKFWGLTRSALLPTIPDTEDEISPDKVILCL
h-Cereblon_DDB1 (hCereblon(M1-L442)_hDDB1(M1-H1140)), sequence (Q16531 whole entry partner): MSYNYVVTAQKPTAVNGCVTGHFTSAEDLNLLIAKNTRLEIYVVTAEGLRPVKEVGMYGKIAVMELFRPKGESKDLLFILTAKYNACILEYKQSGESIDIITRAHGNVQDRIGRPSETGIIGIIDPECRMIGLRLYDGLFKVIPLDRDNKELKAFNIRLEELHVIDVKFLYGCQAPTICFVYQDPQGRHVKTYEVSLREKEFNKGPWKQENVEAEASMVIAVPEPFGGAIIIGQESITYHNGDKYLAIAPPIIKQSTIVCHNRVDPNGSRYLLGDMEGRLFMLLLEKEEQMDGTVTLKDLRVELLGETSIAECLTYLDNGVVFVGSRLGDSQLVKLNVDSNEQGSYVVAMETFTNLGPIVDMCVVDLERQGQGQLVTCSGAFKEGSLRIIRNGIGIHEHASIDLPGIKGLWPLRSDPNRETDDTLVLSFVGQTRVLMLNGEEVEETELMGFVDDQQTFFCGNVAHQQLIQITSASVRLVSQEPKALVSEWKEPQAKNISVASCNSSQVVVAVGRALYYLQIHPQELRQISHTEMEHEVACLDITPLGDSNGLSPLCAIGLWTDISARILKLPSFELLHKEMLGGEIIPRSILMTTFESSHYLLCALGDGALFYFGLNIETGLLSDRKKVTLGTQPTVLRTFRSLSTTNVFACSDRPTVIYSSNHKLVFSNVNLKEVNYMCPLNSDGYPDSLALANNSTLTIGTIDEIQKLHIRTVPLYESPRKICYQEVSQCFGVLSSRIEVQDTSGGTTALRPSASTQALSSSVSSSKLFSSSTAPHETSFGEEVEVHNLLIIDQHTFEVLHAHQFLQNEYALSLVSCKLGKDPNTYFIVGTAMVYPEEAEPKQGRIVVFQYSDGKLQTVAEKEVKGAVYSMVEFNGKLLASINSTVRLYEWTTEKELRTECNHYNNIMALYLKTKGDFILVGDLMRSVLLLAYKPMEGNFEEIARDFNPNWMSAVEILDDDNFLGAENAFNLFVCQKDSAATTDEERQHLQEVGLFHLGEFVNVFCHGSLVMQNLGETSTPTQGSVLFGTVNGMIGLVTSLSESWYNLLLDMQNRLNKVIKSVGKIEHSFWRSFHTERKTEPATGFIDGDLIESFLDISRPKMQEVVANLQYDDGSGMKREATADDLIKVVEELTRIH

For the compound `O=C1NC(=O)C2(CCN(C(=O)c3ccccc3)C2)N1` (stereo not drawn) [Example 1, 7-Benzoyl-1,3,7-triazaspiro[4.4]nonane-2,4-dione], the Kd was 4 nM.

In the case of `O=C1NC(=O)C2(CCN(C(=O)[C@H]3CCCc4ccccc43)C2)N1` (stereo partly drawn) [Example 2, 7-((S)-1,2,3,4-Tetrahydronaphthalene-1-carbonyl)-1,3,7-triazaspiro[4.4]nonane-2,4-dione], the Kd was 3 nM. The result for `O=C1NC(=O)C2(CCN(c3nc4ccccc4s3)C2)N1` (stereo not drawn) [Example 3, 7-(Benzo[d]thiazol-2-yl)-1,3,7-triazaspiro[4.4]nonane-2,4-dione] reads 31 nM; that for `O=C1NC(=O)C2(CCN(C(=O)c3cnn4ccccc34)C2)N1` (stereo not drawn) [Example 4, 7-(Pyrazolo[1,5-a]pyridine-3-carbonyl)-1,3,7-triazaspiro[4.4]nonane-2,4-dione], 37 nM.

For `COC(=O)c1ccc(N2CCC3(C2)NC(=O)NC3=O)nc1` (stereo not drawn) [Example 5, Methyl 6-(2,4-dioxo-1,3,7-triazaspiro[4.4]nonan-7-yl)nicotinate], the Kd turned out to be 2 nM.

Consider `CC(=O)Nc1cccc(C(=O)N2CCC3(C2)NC(=O)NC3=O)c1` (stereo not drawn) [Example 6, N-(3-(2,4-Dioxo-1,3,7-triazaspiro[4.4]nonane-7-carbonyl)phenyl)acetamide], for which the Kd amounted to 10 nM.

For `CC(=O)Nc1ccc(C(=O)N2CCC3(C2)NC(=O)NC3=O)cc1` (stereo not drawn) [Example 7, N-(4-(2,4-Dioxo-1,3,7-triazaspiro[4.4]nonane-7-carbonyl)phenyl)acetamide], the Kd was 161 nM. `O=C1NC(=O)C2(CCN(c3nc4ncccc4s3)C2)N1` (stereo not drawn) [Example 8, 7-(Thiazolo[4,5-b]pyridin-2-yl)-1,3,7-triazaspiro[4.4]nonane-2,4-dione]: the Kd was found to be 7 nM. With `O=C1NC(=O)C2(CCN(C(=O)c3ccc4scnc4c3)C2)N1` (stereo not drawn) [Example 9, 7-(Benzo[d]thiazole-5-carbonyl)-1,3,7-triazaspiro[4.4]nonane-2,4-dione] the figure was 32 nM; with `COC(=O)c1ccc(N2CCC3(CC(=O)NC3=O)C2)nc1` (stereo not drawn) [Example 10, Methyl 6-(6,8-dioxo-2,7-diazaspiro[4.4]nonan-2-yl)nicotinate], 10 nM; with `O=C1CC2(CCN(c3nc4ccccc4s3)C2)C(=O)N1` (stereo not drawn) [Example 11, 7-(Benzo[d]thiazol-2-yl)-2,7-diazaspiro[4.4]nonane-1,3-dione], 18 nM. With `O=C1CC2(CCN(C(=O)c3cnn4ccccc34)C2)C(=O)N1` (stereo not drawn) [Example 12, 7-(Pyrazolo[1,5-a]pyridine-3-carbonyl)-2,7-diazaspiro[4.4]nonane-1,3-dione] the figure was 6 nM; with `O=C1CC2(CCN(C(=O)c3ccccc3)C2)C(=O)N1` (stereo not drawn) [Example 13, 7-Benzoyl-2,7-diazaspiro[4.4]nonane-1,3-dione], 15 nM. The result for `O=C1NC(=O)C2(CCN(C(=O)c3ccc4scnc4c3)C2)N1` (stereo not drawn) [Example 14, 7-(Benzo[d]thiazole-5-carbonyl)-1,3,7-triazaspiro[4.4]nonane-2,4-dione] reads 26 nM; that for `O=C1NC(=O)C2(CCN(C(=O)c3ccc4scnc4c3)C2)N1` (stereo not drawn) [Example 15, 7-(Benzo[d]thiazole-5-carbonyl)-1,3,7-triazaspiro[4.4]nonane-2,4-dione], 23 nM.
